Laboratory results: US8153773B2, “Synthesis and use of anti-reverse phosphorothioate analogs of the messenger RNA cap” (Board of Supervisors of Louisiana State University and …, priority 2007, dated 2012)

Key:
[1] = molecular target: T1, hDcp2 (Homo sapiens, UniProt Q8IU60); test: In vitro RNA decapping assay with recombinant hDcp2; assay type: biochemical; settings: capped 32P-labeled short RNA, recombinant hDcp2, anion exchange HPLC (FIG. 6)
Protocol: Dcp2 activity was measured with capped 48-nt oligonucleotides as substrates, a truncated form of luciferase mRNA (48 nucleotides). GST-hDcp2 was expressed in Escherichia coli and purified as described by Z. Wang et al., “The hDcp2 protein is a mammalian mRNA decapping enzyme,” Proc. Natl. Acad. Sci. U.S.A., vol. 99, pp. 12663-12668 (2002). Capped oligonucleotides were first subjected to digestion with GST-hDcp2 at 37° C. for 2 h in decapping buffer (10 mM Tris-HCl, pH 7.5, 100 mM potassium acetate, 2 mM magnesium acetate, 0.5 mM MnCl2, 2 mM dithiothreitol, and 0.1 mM spermine). See C. Piccirillo et al., “Functional characterization of the mammalian mRNA decapping enzyme hDcp2,” RNA, vol. 9, pp. 1138-1147 (2003). The reaction mixture was then extracted once with an equal volume of phenol and twice with chloroform, and RNA was precipitated with ethanol. Products of the decapping reaction were further digested with a cocktail of ribonucleases (RiboShredder; Epicentre) at 37° C. for 1 h. The products were resolved by anion-exchange HPLC on a 4.6×250-mm Partisil 10SAX/25 column (Whatman). The gradient consisted of water for 1 min, a linear gradient to 112 mM KH2PO4, pH 4.5, for 20 min, a linear gradient of 112-450 mM KH2PO4 for 15 min, a linear gradient of 450 mM to 1.5 M KH2PO4 for 15 min, and isocratic elution at 1.5 M of KH2PO4 for 9 min, all at a flow rate 1 ml/min.
We tested oligonucleotides capped with either of S-ARCAs for hydrolysis by recombinant hDcp2 to test whether mRNA capped with the various diastereomers of m2^7,2′-OGpppsG and m2^7,2′-OGppspG would differ in their sensitivity to cleavage by Dcp1/Dcp2. See generally Z. Wang et al., “The hDcp2 protein is a mammalian mRNA decapping enzyme,” Proc. Natl. Acad. Sci. U.S.A., vol. 99, pp. 12663-12668 (2002), and Z. Wang et al., “An mRNA Stability Complex Functions with Poly(A)-Binding Protein To Stabilize mRNA In Vitro”, Mol. Cell. Biol., vol. 19, pp. 4552-4560 (1999). Cap analogs used were initially unlabeled, so to follow the products of the digestion reaction we synthesized capped oligonucleotides in the presence of [α-^32P]GTP and a DNA template in which G was the first ribonucleotide specified after the promoter. The oligonucleotides capped with either of the S-ARCAs were subjected to Dcp2 digestion in vitro, after which the products were further digested with a cocktail of ribonucleases (RiboShredder from Epicenter). Any nucleotide on the 5′ side of a G residue acquired a ^32P-labeled 3′-phosphate group after ribonuclease digestion by nearest-neighbor transfer. Anion exchange chromatography was then used to resolve the labeled 3′-nucleoside monophosphates (3′-NMP*), at internal positions in the RNA, from labeled 5′-terminal products (FIG. 6). The latter comprise p3 Gp* derived from uncapped transcripts and m2^7,2′-OGp3 Gp* (when m2^7,2′-OGp3G was used), or pGp* resulting from capped RNA resistant or nonresistant to enzymatic cleavage, respectively. All cap analogs used were ARCAs, which ensured that they were incorporated into RNA exclusively in the correct orientation. This further guaranteed that only one 5′-terminal product (m2^7,2′-OGp3 Gp*) was observed upon ribonuclease treatment. Uncapped RNA is not a substrate for Dcp2, which explains why p3 Gp* product was observed after Dcp2 digestion.
See E. Grudzien et al., “Differential inhibition of mRNA degradation pathways by novel cap analogs,” J. Biol. Chem., vol. 281, pp. 1857-1867 (2006).

[2] = molecular target: T1, hDcp2; settings: Grudzien et al. 2006; cited from earlier work
[3] = tested on: HC11 cells; test: Translational efficiency of capped luciferase mRNA in HC11 cells; assay type: cell-based, mouse; settings: Luc-A60 mRNA capped with the analog in HC11 cells, relative to m^7Gp3G-capped mRNA
Protocol: Two methods, electroporation and nucleoporation, were used to deliver RNA into cells. In case of electroporation, 5 μg of RNA were introduced into 10^7 HC11 cells in a total volume 400 μl of serum-reduced RPMI 1640 medium in a Gene pulser cuvette (4 mm gap) with a Bio-Rad Genepulser™ set at 0.22 kV and 960 μF. Following discharge, the cells were washed twice with PBS, centrifuged for 2 min 300×g at room temperature, resuspended in prewarmed complete medium, and placed at 37° C. Nucleoporation was performed with an Amaxa Nucleofector II (Amaxa Biosystems) in accordance with manufacture's recommendations. One microgram of RNA was introduced into 10^6 HC11 cells with Nucleofector Solution V and the set of recommended regimens (program T-024).
For measurement of translational efficiency, cells were divided into several Eppendorf tubes, placed in a water bath at 37° C., and shaken. For measurement of mRNA stability, cells were distributed into 35-mm cell culture dishes and placed at 37° C. in a 5% CO2 humidified atmosphere. Cells were harvested at various times and washed twice with PBS.
For cytoplasmic RNA extraction, 2×10^5 cells were lysed in 175 μl of lysis buffer (50 mM Tris-HCl, pH 8.0, 140 mM NaCl, 1.5 mM MgCl2, 0.5% (v/v) Igepal (Sigma), and 1 mM dithiothreitol). RNAs were further purified using the RNeasy mini kit. For protein extraction, 2×10^5 cells were lysed in 200 μl of Luciferase Cell Culture Lysis Reagent (Promega). Luciferase activity of cell extracts was measured according to the manufacturer's protocol (Promega).
We also determined the translational efficiency in cultured cells for luciferase mRNA capped with S-ARCAs. This involved two measurements conducted at various times following nucleoporation—luciferase activity measured by luminometry in cleared cell lysates, and Luc-A60 levels measured by real-time PCR. Luciferase activity was normalized by the amount of luciferase mRNA that had been delivered into cells. To determine the amount of RNA present in the cells at a time immediately after nucleoporation, i.e., before any decay had occurred, cells were harvested at various times between 2 to 8 h post-nucleoporation, and cytoplasmic RNA was extracted. The amount of luciferase mRNA was measured by real time PCR using primers that amplify sequences near the 5′-end. Luciferase mRNA remaining at each time point was plotted as log10 ([RNA]) versus time to determine t1/2. The curve was extrapolated to 0 h, and the amount of RNA delivered into the cells was calculated. We defined conditions under which the accumulation of luciferase was linear with time, after an initial lag period of ˜30 min for recruitment of mRNA to ribosomes, completing the first polypeptide chain, and release of luciferase into the cytosol.

[4] = molecular target: T2, murine eIF4E (28-217) (Mus musculus, UniProt P63073); test: Binding affinities for eIF4E by fluorescence quenching; settings: murine eIF4E (28-217)
T2 construct: (28-217) to phosphorothioate cap analogs, as determined
T2 sequence (P63073 28-217): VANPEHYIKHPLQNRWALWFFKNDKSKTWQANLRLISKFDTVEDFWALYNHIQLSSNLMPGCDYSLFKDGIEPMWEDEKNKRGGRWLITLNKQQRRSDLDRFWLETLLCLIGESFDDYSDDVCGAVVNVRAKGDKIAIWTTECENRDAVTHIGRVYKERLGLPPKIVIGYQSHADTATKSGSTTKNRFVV
Protocol: Binding affinities of S analogs for murine eIF4E were determined by fluorescence quenching. Fluorescence titration measurements were carried out on an LS-50B spectrofluorometer (Perkin Elmer Co.) in 50 mM HEPES/KOH (pH 7.2), 100 mM KCl, 0.5 mM EDTA, 1 mM DTT at 20.0±0.2° C. Aliquots of 1 μl increasing concentration of cap analogue solutions were added to 1.4 ml of […] solutions. Fluorescence intensities (excitation at 280 nm with 2.5 nm bandwidth and detection at 337 nm with 4 nm bandwidth and 290 nm cut-off filter) were corrected taking into account sample dilution and the inner filter effect. Equilibrium association constants (KAS) were determined by fitting the theoretical dependence of the fluorescence intensity on the total concentration of cap analogue to the experimental data points according to equation described previously (See A. Niedzwiecka et al., “Biophysical studies of eIF4E cap-binding protein: recognition of mRNA 5′ cap structure and synthetic fragments of eIF4G and 4E-BP1 proteins,” J. Mol. Biol., vol. 319, pp. 615-635 (2002)). The concentration of protein was fitted as a free parameter of equilibrium equation showing amount of “active” protein. The final KAS was calculated as a weighted average of three to ten independent titrations, with the weights taken as the reciprocals of the numerical standard deviations squared. Numerical nonlinear least-squares regression analysis was performed using ORGIN 6.0 (Microcal Software Inc., USA). The Gibbs free energy of binding was calculated from the KAS value according to the standard equation ΔG°=−RTlnKAS.

[5] = molecular target: T3, DcpS (Homo sapiens, UniProt Q96C86); test: Enzymatic hydrolysis by human DcpS; assay type: biochemical; parameters: key: the analogs assigned as resistant remained completely undigested under the applied conditions; the analogs assigned as hydrolyzed were hydrolyzed by DcpS with efficiency comparable to the respective unmodified parent compound; settings: conditions giving complete degradation of unmodified parent within 40-90 min, RP HPLC
T3 sequence (Q96C86 1-337): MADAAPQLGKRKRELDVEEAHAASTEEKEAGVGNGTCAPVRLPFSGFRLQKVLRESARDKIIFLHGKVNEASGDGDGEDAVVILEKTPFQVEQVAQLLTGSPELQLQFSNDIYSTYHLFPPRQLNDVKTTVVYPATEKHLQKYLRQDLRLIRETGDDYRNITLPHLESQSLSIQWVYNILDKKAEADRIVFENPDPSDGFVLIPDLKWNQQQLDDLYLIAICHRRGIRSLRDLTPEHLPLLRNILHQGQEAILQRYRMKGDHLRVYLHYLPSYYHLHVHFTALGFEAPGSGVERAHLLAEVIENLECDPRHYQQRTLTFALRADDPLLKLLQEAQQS
Protocol: (§1) Human and nematode DcpS were expressed in Escherichia coli according to the procedures described previously (L. S. Cohen et al., “Nematode m7 GpppG and m3(2,2,7)GpppG decapping: activities in Ascaris embryos and characterization of C. elegans scavenger DcpS,” RNA, vol. 10, pp. 1609-1624 (2004)). Both proteins were stored at −80° C. in 20 mM Tris buffer, pH 7.5, containing 50 mM KCl, 0.2 mM EDTA, 1 mM DTT, 0.5 mM PMSF, and 20% glycerol. An appropriate cap analog at 1 mM concentration was treated with 5.0 or 7.0 μl of DcpS (from human or C. elegans, respectively) in 500 μl of 50 mM TRIS buffer, pH=7.9, containing 20 mM of MgCl2 and 60 mM of (NH4)2SO4 at 37° C. for 60-90 min. Every 15-20 min a 100 μl sample was collected from the reaction mixture and deactivated by incubation in 90° C. for 3 min. Collected samples were analyzed without further treatment by analytical RP HPLC using a linear gradient of methanol in 0.1 M KH2PO4, pH=6.0, from 0-50% within 15 min and UV-detection at 260 nm.
(§2) The new series of S-analogs were subjected to in vitro enzymatic hydrolysis catalyzed by DcpS from both human and C. elegans sources. In all experiments, the corresponding unmodified cap analog was used as a positive control, i.e., m^7GpppG for non-ARCA S-analogs and m2^7,2′-OGpppG for S-ARCAs. The amount of DcpS enzyme was optimized to provide complete degradation of the control substrate within 40-90 min. The samples collected from reaction mixtures at various time intervals were analyzed by RP HPLC (as described in Materials and Methods).
(§3) In Table 4, cap analogs at 4 μM concentration were subjected to enzymatic digestion by DcpS in conditions leading to complete degradation of the unmodified parent compound (i.e. m^7GpppG for non-ARCA S-analogs and m2^7,2′-OGpppG for ARCAs) within 40-90 min. Samples collected from reaction mixtures at various time intervals were analysed by RP HPLC with UV detection at 260 nm as described in Materials and Methods. […] The result was unchanged even if the reaction time was extended to 24 h, various amounts of enzyme were used, and composition of the reaction buffer was modified.

[6] = molecular target: T4, DcpS (Caenorhabditis elegans, UniProt G5EFS4); test: Enzymatic hydrolysis by C. elegans DcpS; assay type: biochemical; parameters: key: the analogs assigned as resistant remained completely undigested under the applied conditions; the analogs assigned as hydrolyzed were hydrolyzed by DcpS with efficiency comparable to the respective unmodified parent compound; settings: conditions giving complete degradation of unmodified parent within 40-90 min, RP HPLC
T4 sequence (G5EFS4 1-311): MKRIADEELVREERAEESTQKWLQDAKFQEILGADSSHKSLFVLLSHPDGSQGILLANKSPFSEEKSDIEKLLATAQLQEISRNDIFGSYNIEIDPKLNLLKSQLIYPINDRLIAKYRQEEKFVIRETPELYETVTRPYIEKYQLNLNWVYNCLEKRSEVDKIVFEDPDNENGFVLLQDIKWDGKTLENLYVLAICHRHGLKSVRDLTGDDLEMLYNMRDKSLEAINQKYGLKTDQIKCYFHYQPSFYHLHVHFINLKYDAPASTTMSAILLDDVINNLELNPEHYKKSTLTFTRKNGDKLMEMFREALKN
Protocol: as §1, §2, §3

SMILES | hydrolysis of capped oligonucleotide by hDcp2 [1] | hydrolysis of capped mRNA by recombinant human Dcp2 in vitro [2] | Relative translational efficiency [3] | ΔG° ([4]; binding free energy calculated from KAS) | KAS ([4]; equilibrium association constant, fluorescence quenching) | Resistance to enzymatic hydrolysis by DcpS (human) [5] | Resistance to enzymatic hydrolysis by DcpS (from C. elegans) [6]
CO[C@H]1[C@@H](O)[C@H](n2c[n+](C)c3c(=O)[nH]c(N)nc32)O[C@@H]1COP(=O)(O)OP(=O)(O)CP(=O)(O)OC[C@H]1O[C@@H](n2cnc3c(=O)[nH]c(N)nc32)[C@H](O)[C@@H]1O [m2^7,3′-OGppCH2pG, reference compound] | resistant | resistant to hydrolysis | – | – | – | – | –
Cn1c[n+]([C@@H]2O[C@H](COP(=O)(O)OP(=O)([O-])OP(=O)(O)OC[C@H]3O[C@@H](n4cnc5c(=O)[nH]c(N)nc54)[C@H](O)[C@@H]3O)[C@@H](O)[C@H]2O)c2nc(N)[nH]c(=O)c21 [m^7GpppG, reference compound] | – | – | 1.00 | -39.1 ± 0.084 kJ/mol | 9.4 ± 0.4 µM⁻¹ | hydrolyzed | hydrolyzed
